Holding throughout (type): functional, cell-based
Data set [1] has as its target T1, ATP-dependent translocase ABCB1 (Homo sapiens, UniProt P08183). Kind of data set: TP_TRANSPORTER: transepithelial transport in L-MDR1 cells. The conditions noted are these: pig.
Data set [2] concerns the target T1, ATP-dependent translocase ABCB1. The experiment in a line: TP_TRANSPORTER: transepithelial transport of vinblastine in the presence of Atrovastatin at 50uM in KBV1 cells. The conditions noted are these: kbv1, 50 µM.
Data set [3] shares this target. Kind of data set: TP_TRANSPORTER: transepithelial transport of vinblastine in the presence of Simvastatin acid at 50uM in L-MDR1 cells. The settings on record: pig, l-mdr1, 50 µM.

The structures appear in SMILES notation.

T1 sequence (P08183 whole entry): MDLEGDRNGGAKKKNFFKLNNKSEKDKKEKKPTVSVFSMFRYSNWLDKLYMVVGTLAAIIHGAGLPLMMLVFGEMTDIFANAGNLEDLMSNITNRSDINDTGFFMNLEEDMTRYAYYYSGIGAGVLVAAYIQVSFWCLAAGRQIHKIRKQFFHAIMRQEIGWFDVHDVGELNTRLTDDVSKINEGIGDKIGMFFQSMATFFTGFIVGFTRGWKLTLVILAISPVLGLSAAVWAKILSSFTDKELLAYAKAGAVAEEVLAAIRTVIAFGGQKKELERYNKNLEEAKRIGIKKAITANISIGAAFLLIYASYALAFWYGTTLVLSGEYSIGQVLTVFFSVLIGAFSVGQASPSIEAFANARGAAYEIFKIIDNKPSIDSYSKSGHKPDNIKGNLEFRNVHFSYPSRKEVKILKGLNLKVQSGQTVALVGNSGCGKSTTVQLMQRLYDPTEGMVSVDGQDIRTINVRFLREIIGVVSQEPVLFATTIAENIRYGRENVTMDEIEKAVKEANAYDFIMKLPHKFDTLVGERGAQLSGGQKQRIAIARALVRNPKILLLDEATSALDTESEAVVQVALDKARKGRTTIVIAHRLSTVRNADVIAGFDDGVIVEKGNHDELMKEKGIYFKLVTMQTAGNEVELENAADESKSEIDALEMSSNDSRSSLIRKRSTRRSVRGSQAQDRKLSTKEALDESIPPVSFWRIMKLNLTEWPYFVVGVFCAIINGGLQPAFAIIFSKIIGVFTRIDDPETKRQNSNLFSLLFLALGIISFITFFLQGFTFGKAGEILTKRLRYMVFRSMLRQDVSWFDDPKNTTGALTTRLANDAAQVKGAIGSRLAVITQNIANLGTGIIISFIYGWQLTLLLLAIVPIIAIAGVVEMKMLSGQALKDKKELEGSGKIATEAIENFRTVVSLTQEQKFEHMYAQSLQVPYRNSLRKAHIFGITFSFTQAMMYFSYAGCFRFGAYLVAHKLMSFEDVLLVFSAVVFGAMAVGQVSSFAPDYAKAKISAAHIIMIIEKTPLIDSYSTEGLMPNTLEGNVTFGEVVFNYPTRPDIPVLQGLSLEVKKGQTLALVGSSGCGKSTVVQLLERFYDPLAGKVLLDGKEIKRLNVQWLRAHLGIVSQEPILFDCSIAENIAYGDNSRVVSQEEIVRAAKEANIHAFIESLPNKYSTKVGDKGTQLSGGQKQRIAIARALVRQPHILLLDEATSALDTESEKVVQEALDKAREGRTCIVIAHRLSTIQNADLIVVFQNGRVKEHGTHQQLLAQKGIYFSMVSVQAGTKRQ

In the case of `CC(C)c1c(C(=O)Nc2ccccc2)c(-c2ccccc2)c(-c2ccc(F)cc2)n1CC[C@@H](O)C[C@@H](O)CC(=O)O` [ATORVASTATIN], the Activity entry in data set [1] was “substrate [+]”; in data set [2], “is not an inhibitor [-]”.
Consider `CCC(C)(C)C(=O)O[C@H]1C[C@@H](C)C=C2C=C[C@H](C)[C@H](CC[C@@H](O)C[C@@H](O)CC(=O)O)[C@H]21` [TENIVASTATIN], for which the Activity entry was “substrate [+]” in data set [1] and “is not an inhibitor [-]” in data set [3].

The values above are taken from ChEMBL document CHEMBL2074343 (Pharm Res, 2004).
